# Data published in US8148392B2, “2-indolyl imidazo [4,5-d] phenanthroline derivatives and their use in the treatment of cancer” (Lorus Therapeutics Inc., priority 2005, dated 2012).
# Legend:
# Sp1 = Sp1 DNA binding activity, EMSA, HT-29 nuclear extracts; assay type: cell-based, human
# Protocol: Based on overlapping transcription factor binding sites on KLF4 gene promoter region (as shown in FIG. 32A), MTF-1 binding may favor increased binding of other KLF4 inducers; Sp1 and KLF4.
# Electrophoretic mobility shift assay (EMSA) was performed as follows. Nuclear extracts from HT-29 cells (10^7 cells in 100 mm culture dish in each experimental group) were prepared using nuclear extraction kit (Panomics, Redwood City, Calif.). EMSA assays were performed using KLF4 and Sp1 EMSA “Gel-Shift” kits (Panomics), by following the manufacturer's instruction. Briefly, 5 μg of nuclear extract was used for each binding reaction. After 30 min of binding reaction, the samples were separated on 6% polyacrylamide gel at 4° C. at 120 V, and transferred to BrightStar™-Plus positively charged nylon membrane. The biotin-labeled probes on the membrane were visualized by using ECL detection system (Panomics).
# CCRF-CEM leukemia cells = experiment: Apoptosis, annexin V-FITC/PI flow cytometry, CCRF-CEM; assay type: cell-based, human; settings: 0.1-1 μM, 24 hours
# Protocol: The ability of compound 3 to alter the population of cells at different stages of apoptosis was measured by determining the effect of compound 3 on populations of CCRF-CEM leukemia cells treated with vehicle (DMSO), 0.1 μM, 0.25 μM, 0.5 μM, or 1 μM of compound 3 for 24 hours. CCRF-CEM cells were seeded and treated with the above concentrations of compound 3 or 0.1% DMSO vehicle control as described in Example 23. After 24 hours, the cells were collected by centrifugation and re-suspended in growth media to approximately 1×10^6 cells/ml. Then the cells were stained for annexin V binding and PI staining using the annexin V-FITC apoptosis detection kit (Oncogene™ research products, Mass.) and following the manufacturer's RAPID Annexin V Binding protocol. The fluorescence of stained cells was analyzed using FACScan flow cytometer and the Cell Quest program (BD Biosciences, San Jose, Calif.). Data were evaluated using Modfit software (Verity software House, Topsham, Me.) to generate quadrant statistics. Cells stained with Annexin V only are considered to be in early apoptosis, whereas cells stained with both Annexin V and propidium iodide are considered to be in late apoptosis. Cells stained with propidium iodide only are non-viable, whereas no staining indicates viable cells. MOLT-4 leukemia cells were treated similarly.
# MTF-1 = MTF-1 DNA-binding activity, EMSA, HT-29 nuclear extract; assay type: cell-based, human
# Protocol: To verify the change in MTF-1 activity at earlier time of incubation, prior to the significant decrease in MTF-1 gene expression, MTF-1 nuclear translocation and DNA-binding activity was determined in nuclear extract of HT-29 cells treated with compound 3 for 4 hr, by electrophoretic mobility shift assay (EMSA) (FIG. 40B) as follows. HT-29 cells were treated with DMSO, 35 μM ZnCl2 (positive control) and 1 μM compound 3 for 4 hr. Nuclear protein was extracted and incubated with biotin-labeled MTF-1 binding oligonucleotide probes. The retarded mobility of labeled probe upon MTF-1 binding was observed as a band shift (FIG. 40B). […] In zinc-treated groups, 2 additional shift bands (open arrows) were observed (lane 3), indicating the increase in zinc-dependent MTF-1 activity. […] Excess unlabeled probes were added in lane 2, 4 and 6 to compete the labeled probes binding with MTF-1 in the nuclear extract, showing the specificity of MTF-1-binding shift bands in lane 1, 3 and 5, respectively.
# HT-29 cells were treated with 35 μM ZnCl2 for 4 hr and the nuclear extract from zinc-treated cells (zinc-activated MTF-1) was treated with compound 3 in vitro and DNA-binding activity of MTF-1 to MRE sequence was assessed by electrophoretic mobility shift assay (EMSA) (Panomics, Redwood City, Calif.).
# To examine inactivation of MTF-1 by compound 3 in the cells, HT-29 cells were treated with compound 3 for 1 to 4 hr and DNA-binding activity of MTF-1 in the nuclear extract was assessed by EMSA.
# [1] = tested on: human leukemia CCRF-CEM cells; experiment: Cell cycle analysis by flow cytometry, CCRF-CEM; assay type: cell-based; settings: 0.25-1 μM, 24 hours
# Protocol: To test the ability of compounds of Formula I to block cell cycle progression, compound 3 was incubated with human colon carcinoma HT-29 or human leukemia CCRF-CEM cells to determine alterations in populations of cells at different stages of the cell cycle using flow cytometric analysis. HT-29 cells were maintained as described in Example 13. CCRF-CEM cells used in this example and subsequent examples were maintained as suspension cells in a growth medium; RPMI-1640 medium (Sigma, St. Louis, Mo.), supplemented with 2 mM L-glutamine (Gibco, Grand Island, N.Y.), 10% fetal bovine serum (FBS) (Multicell, WISENT Inc. St-Bruno, QC), antibiotic-antimycotic (Multicell), at 37° C. in a 5% CO2-humidified incubator.
# The assay was carried out as follows. For HT-29 cells, 1×10^6 cells in 10 mL volume of the growth medium were seeded in 100 mm dishes. For CCRF-CEM cells, 3×10^6 cells in 10 mL volume of the growth medium were seeded in 25 cm^2 flask. […] The fluorescence of stained cells was analyzed using FACScan flow cytometer and the Cell Quest program (BD Biosciences, San Jose, Calif.). Data were evaluated using Modfit software (Verity software House, Topsham, Me.). Values were determined by gate analysis of flow cytometric plots. […]
smiles,measurement,setting,value
Cc1[nH]c2ccccc2c1-c1nc2c3cccnc3c3ncccc3c2[nH]1 [Compound 3],DNA binding activity of Sp1,Sp1,Increased DNA binding activities
same,induction of apoptosis,CCRF-CEM leukemia cells,increase in the number of early and late apoptotic cells
same,DNA-binding activity of MTF-1,MTF-1; HT-29 cells treated for 1 to 4 hr,Significant decrease in MTF-1 activity
same,zinc-dependent MTF-1 DNA-binding activity,"MTF-1; HT-29 treated with 1 μM for 4 hr, versus ZnCl2 positive control",zinc-dependent MTF-1 activity was not increased
same,DNA-binding activity of zinc-activated MTF-1,MTF-1; nuclear extract of zinc-treated HT-29 cells treated in vitro,Inactivation of MTF-1 DNA-binding
same,cell cycle progression,[1],induced a block in cell cycle progression at the G1 phase
